Test results from patent US11207312B2, “Metallo-beta-lactamase inhibitors and methods of use thereof” (priority 2017, dated 2021).

Columns and labels:
NDM-1 = NDM-1 (Klebsiella pneumoniae, UniProt C7C422); assay: biochemical; format: biochemical; details: CCF2-FA fluorescence assay, 2 hours at 25° C.
How it was run: (§1)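 In 100 mM phosphate pH 7 containing Tween-20 and ZnSO4, NDM-1 (1 pM), IMP-1 (2 pM) or VIM-1 (30 pM) hydrolysed 1.25 μM CCF2-FA over 2 hours at 25° C with inhibitor present. Readout was 405/460 nm fluorescence.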

[1] = system: Escherichia coli expressing NDM-1 (CLB30016); format: cell-based; details: with imipenem 1 μg/ml; 95% inhibition of bacterial growth
How it was run: (§2)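 Clinical MBL-producing strains were grown overnight at 35 °C on blood agar, suspended in saline, diluted 1:100 into 1.1× CAMHB and exposed to test compound with imipenem at 1 μg/ml. After 22–24 h at 35 °C, absorbance gave MITC95: lowest compound concentration inhibiting 95% of growth.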

[2] = system: Serratia marcescens expressing IMP-1 (CL5741); format: cell-based; details: with imipenem 1 μg/ml; 95% inhibition of bacterial growth
How it was run: as §2

[3] = system: Klebsiella pneumoniae expressing VIM-1 (IHMA599644); format: cell-based; details: with imipenem 1 μg/ml; 95% inhibition of bacterial growth
How it was run: as §2

VIM-2 = VIM-2 (Escherichia coli, UniProt Q5U7L7); assay: biochemical; details: CCF2-FA fluorescence assay; read-out: VIM2 IC50
[4] = system: P. aeruginosa MB9799 (efflux-, IMP-1 plasmid); format: cell-based, Pseudomonas aeruginosa; details: efflux − (MB9799) strain; imipenem at 2 μg/mL; in the presence of a class A, C, D serine β-lactamase inhibitor closely related to relebactam
How it was run: (§3)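 Isogenic P. aeruginosa PAO1 strains (efflux+ and multiple-efflux-pump-disrupted) carrying plasmid IMP-1, with inducible AmpC, tested by broth microdilution. Imipenem and/or ceftazidime fixed, usually at CLSI breakpoint, plus fixed class A/C β-lactamase inhibitor; titrated MBL inhibitor concentration restoring susceptibility recorded and compared between strains as efflux fold difference.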

IMP-1 = IMP-1 (Serratia marcescens, UniProt P52699); assay: biochemical; details: CCF2-FA fluorescence assay, 2 hours at 25° C.; read-out: IMP1 IC50
How it was run: as §1

VIM-1 = VIM-1 (Pseudomonas aeruginosa (strain ATCC 15692 / DSM 22644 / CIP 104116 / JCM 14847 / LMG 12228 / 1C / PRS 101 / PAO1), UniProt A0A0F7KYQ8); assay: biochemical; details: CCF2-FA fluorescence assay, 2 hours at 25° C.; read-out: VIM1 IC50
How it was run: as §1

[5] = system: P. aeruginosa MB9798 (efflux+, IMP-1 plasmid); details: for MB9798 MITC95 P. aeruginosa uM Efflux WT: efflux + (MB9798) strain, imipenem at 2 μg/mL, in the presence of a class A, C, D serine β-lactamase inhibitor closely related to relebactam; for Efflux ratio: fold difference between efflux+ (MB9798) and efflux− (MB9799) strains
How it was run: as §3

Chain of IMP-1 (P52699 whole entry, looked up, species assumed): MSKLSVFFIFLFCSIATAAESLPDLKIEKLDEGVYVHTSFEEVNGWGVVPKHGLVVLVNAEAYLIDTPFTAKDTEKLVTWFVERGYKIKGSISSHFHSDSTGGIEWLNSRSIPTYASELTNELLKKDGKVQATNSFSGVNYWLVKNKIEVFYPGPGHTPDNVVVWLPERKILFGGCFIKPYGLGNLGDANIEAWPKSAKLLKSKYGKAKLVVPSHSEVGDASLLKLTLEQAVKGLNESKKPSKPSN
Chain of NDM-1 (C7C422 whole entry, looked up, species assumed): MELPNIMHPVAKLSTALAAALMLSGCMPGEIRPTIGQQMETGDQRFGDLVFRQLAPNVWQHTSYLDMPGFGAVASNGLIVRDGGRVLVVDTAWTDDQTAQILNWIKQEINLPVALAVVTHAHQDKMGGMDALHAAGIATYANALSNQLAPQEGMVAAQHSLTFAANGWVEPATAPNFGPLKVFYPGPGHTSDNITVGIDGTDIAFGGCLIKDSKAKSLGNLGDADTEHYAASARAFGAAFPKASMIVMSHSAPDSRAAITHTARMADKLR

## COC1(CO)CCN(c2ccc(S(=O)(=O)NC[C@H](O)CN)c(S(N)(=O)=O)c2-c2nn[nH]n2)CC1 [Example 21, (R)-N^1-(3-amino-2-hydroxypropyl)-4-(4-(hydroxymethyl)-4-methoxypiperidin-1-yl)-3-(2H-tetrazol-5-yl)benzene-1,2-disulfonamide]
NDM-1
  IC50: 0.41 nM
[1]
  CLB30016 E. coli MITC95 NDM: 12.50 µM
[2]
  CL5741 S. marcescens MITC95 IMP: 6.25 µM
[3]
  IHMA599644 K. pneumoniae MITC95 VIM: 12.50 µM
VIM-2
  IC50: 2.7 nM
[4]
  MB9799 MITC95 P. aeruginosa uM Efflux Mutant: 3.13 µM
IMP-1
  IC50: 0.56 nM
VIM-1
  IC50: 1.13 nM
[5]
  MB9798 MITC95 P. aeruginosa uM Efflux WT: 3.13 µM
  Efflux ratio: 1.00

## NC[C@@H](O)CNS(=O)(=O)c1ccc(N2CC[C@H](CN)[C@@H](O)C2)c(-c2nn[nH]n2)c1S(N)(=O)=O [Example 10]
NDM-1
  IC50: 16.4 nM
[1]
  CLB30016 E. coli MITC95 NDM: 0.39 µM
[2]
  CL5741 S. marcescens MITC95 IMP: 0.39 µM
[3]
  IHMA599644 K. pneumoniae MITC95 VIM: 1.56 µM
VIM-2
  IC50: 27 nM
[4]
  MB9799 MITC95 P. aeruginosa uM Efflux Mutant: 0.78 µM
IMP-1
  IC50: 28.9 nM
VIM-1
  IC50: 0.43 nM
[5]
  MB9798 MITC95 P. aeruginosa uM Efflux WT: 3.13 µM
  Efflux ratio: 4.00

## NS(=O)(=O)c1c(S(=O)(=O)N[C@@H]2CCNC2)ccc(N2CCNCC2)c1-c1nnn[nH]1 [Example 79, 4-piperazin-1-yl-N1-[(3R)-pyrrolidin-3-yl]-3-(1H-tetrazol-5-yl)benzene-1,2-disulfonamide]
NDM-1
  IC50: 9.35 nM
[1]
  CLB30016 E. coli MITC95 NDM: 0.39 µM
[2]
  CL5741 S. marcescens MITC95 IMP: 0.78 µM
[3]
  IHMA599644 K. pneumoniae MITC95 VIM: 3.13 µM
VIM-2
  IC50: 36.4 nM
[4]
  MB9799 MITC95 P. aeruginosa uM Efflux Mutant: 1.56 µM
IMP-1
  IC50: 26.6 nM
VIM-1
  IC50: 8.6 nM
[5]
  MB9798 MITC95 P. aeruginosa uM Efflux WT: 3.13 µM
  Efflux ratio: 2.00

## NCCNS(=O)(=O)C1CCN(c2ccc(S(=O)(=O)N[C@@H]3CCNC3)c(S(N)(=O)=O)c2-c2nn[nH]n2)CC1 [Example 167, (R)-4-(4-(N-(2-aminoethyl)sulfamoyl)piperidin-1-yl)-N1-(pyrrolidin-3-yl)-3-(2H-tetrazol-5-yl)benzene-1,2-disulfonamide]
NDM-1
  IC50: 0.25 nM
[1]
  CLB30016 E. coli MITC95 NDM: 1.17 µM
[2]
  CL5741 S. marcescens MITC95 IMP: 1.17 µM
[3]
  IHMA599644 K. pneumoniae MITC95 VIM: 1.56 µM
VIM-2
  IC50: 0.4 nM
[4]
  MB9799 MITC95 P. aeruginosa uM Efflux Mutant: 0.78 µM
IMP-1
  IC50: 0.25 nM
VIM-1
  IC50: 0.05 nM
[5]
  MB9798 MITC95 P. aeruginosa uM Efflux WT: 0.78 µM
  Efflux ratio: 1.00

## NC[C@@H](O)CNS(=O)(=O)c1ccc(N2CCC(C(N)=O)C2)c(-c2nn[nH]n2)c1S(N)(=O)=O (stereo partly drawn) [Example 118, 1-(4-(N—((R)-3-amino-2-hydroxypropyl)sulfamoyl)-3-sulfamoyl-2-(2H-tetrazol-5-yl)phenyl)pyrrolidine-3-carboxamide]
NDM-1
  IC50: 1.55 nM
[1]
  CLB30016 E. coli MITC95 NDM: 1.56 µM
[2]
  CL5741 S. marcescens MITC95 IMP: 1.56 µM
[3]
  IHMA599644 K. pneumoniae MITC95 VIM: 3.13 µM
VIM-2
  IC50: 2.44 nM
[4]
  MB9799 MITC95 P. aeruginosa uM Efflux Mutant: 1.56 µM
IMP-1
  IC50: 1.25 nM
VIM-1
  IC50: 1.2 nM
[5]
  MB9798 MITC95 P. aeruginosa uM Efflux WT: 1.56 µM
  Efflux ratio: 1.00

## NCC(=O)N1CCN(c2ccc(S(=O)(=O)NC[C@H](O)CN)c(S(N)(=O)=O)c2-c2nn[nH]n2)CC1 [Example 119, (R)—N1-(3-amino-2-hydroxypropyl)-4-(4-(2-aminoacetyl)piperazin-1-yl)-3-(2H-tetrazol-5-yl)benzene-1,2-disulfonamide]
NDM-1
  IC50: 3.45 nM
[1]
  CLB30016 E. coli MITC95 NDM: 0.78 µM
[2]
  CL5741 S. marcescens MITC95 IMP: 0.78 µM
[3]
  IHMA599644 K. pneumoniae MITC95 VIM: 1.56 µM
VIM-2
  IC50: 10.1 nM
[4]
  MB9799 MITC95 P. aeruginosa uM Efflux Mutant: 0.78 µM
IMP-1
  IC50: 6.56 nM
VIM-1
  IC50: 0.57 nM
[5]
  MB9798 MITC95 P. aeruginosa uM Efflux WT: 1.56 µM
  Efflux ratio: 2.00
